Results as given in ChEMBL document CHEMBL3714749, “Quinoxaline derivatives as gpr6 modulators” (2014).

These molecules were tested against G-protein coupled receptor 6 (Homo sapiens, UniProt P46095) (assay: Activity at GPR6 (unknown origin) expressed in CHOK1 cells assessed as inhibition of constitutive cAMP activity incubated for 45 mins by HTRF based cAMP detection assay). Details: not given.
Sequence of G-protein coupled receptor 6 (P46095 whole entry): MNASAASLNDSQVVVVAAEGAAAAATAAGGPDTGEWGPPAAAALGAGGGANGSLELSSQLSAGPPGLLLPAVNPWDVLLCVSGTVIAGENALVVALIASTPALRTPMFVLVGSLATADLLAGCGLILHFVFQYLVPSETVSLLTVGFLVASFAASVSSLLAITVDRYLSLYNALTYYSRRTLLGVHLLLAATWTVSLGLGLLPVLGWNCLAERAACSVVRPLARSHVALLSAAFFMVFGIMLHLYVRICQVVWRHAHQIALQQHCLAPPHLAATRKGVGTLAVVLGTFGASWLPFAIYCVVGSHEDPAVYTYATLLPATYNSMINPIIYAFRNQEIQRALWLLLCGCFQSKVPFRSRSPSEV
Type: functional, cell-based, CHO-K1
N#Cc1ccc2nc(NC3CC3)c(N3CCC(Cc4ccc(F)cc4F)CC3)nc2c1 showed an IC50 of 64 nM.
Clc1ccccc1OC1CCN(c2nc3cnccc3nc2NC2CC2)CC1 was tested, and the IC50 was 1510 nM.
CN(C)C(=O)c1cc2nc(NC3CC3)c(N3CCC([C@H](F)c4ccc(F)cc4F)CC3)nc2cn1 gave an IC50 of 10 nM.
Work on COCCNc1nc2ccncc2nc1N1CCC(Cc2ccc(F)cc2F)CC1 yielded an IC50 of 30 nM.
With N#Cc1ccc2nc(N3CCN(Cc4cc(Cl)ccc4Cl)CC3)c(Nc3cccnc3)nc2c1 the IC50 was 440 nM.
For Cc1nccc2nc(NC3CC3)c(N3CCC(Cc4ccc(F)cc4F)CC3)nc12, the IC50 was 2 nM.
COCCNc1nc2ccc(C#N)cc2nc1N1CCC(C(F)c2ccc(F)cc2F)CC1 (stereo unspecified) was tested, and the IC50 was 340 nM.
For N#Cc1nccc2nc(NC3CC3)c(N3CCN(Cc4ccc(F)cc4F)CC3)nc12, the IC50 was 66 nM.
Work on Fc1cc(F)c(CN2CCN(c3nc4ccncc4nc3Nc3cccnc3)CC2)cc1F yielded an IC50 of 400 nM.
COc1cccc(OC2CCN(c3nc4cnncc4nc3NC(C)C)CC2)c1 gave an IC50 of 1000 nM.
N#Cc1ccc2nc(NC3CC3)c(N3CCN(Cc4cc(F)ccc4F)CC3)nc2c1 gave an IC50 of 380 nM.
For Fc1ccc(OC2CCN(c3nc4ccncc4nc3NC3CCC3)CC2)c(F)c1, the IC50 was 14 nM.
Clc1ccc(OC2CCN(c3nc4cnccc4nc3NC3CC3)CC2)cc1 gave an IC50 of 310 nM.
Clc1ccc(Cl)c(CN2CCN(c3nc4ccccc4nc3Nc3ccccn3)CC2)c1 was tested, and the IC50 was 3290 nM.
CC(C)(C)Nc1nc2cc(C#N)ncc2nc1N1CCC(Oc2ccc(F)cc2F)CC1 was tested, and the IC50 was 538 nM.
In the case of N#Cc1ccc2nc(N3CCN(C(=O)c4ccc(Cl)cc4)CC3)c(NC3CC3)nc2c1, the IC50 is reported as 340 nM.
With Fc1ccc(CN2CCN(c3nc4ccncc4nc3NCC(F)F)CC2)c(F)c1 the IC50 was 230 nM.
Cc1cc2nc(NC3CC3)c(N3CCC(Cc4ccc(F)cc4F)CC3)nc2cn1 was tested, and the IC50 was 20 nM.
In the case of N#Cc1cccc2nc(NC3CC3)c(N3CCN(Cc4cc(Cl)ccc4Cl)CC3)nc12, the IC50 is reported as 650 nM.
O=C(c1ccc(Cl)c(Cl)c1)N1CCN(c2nc3ccccc3nc2NC2CC2)CC1 showed an IC50 of 79600 nM.
O=C(c1cc(Cl)ccc1Cl)N1CCN(c2nc3ccccc3nc2NC2CC2)CC1 showed an IC50 of 6640 nM.
Molecule Cc1nccc2nc(NC3CC3)c(N3CCC(Cn4ccc(F)cc4=O)CC3)nc12 has an IC50 of 380 nM.
In the case of COc1ccc(CC2CCN(c3nc4cnncc4nc3NC(C)C)CC2)c(F)c1, the IC50 is reported as 15 nM.
Molecule CC(C)Nc1nc2cnccc2nc1N1CCC(Oc2ccc(F)cc2F)CC1 has an IC50 of 20 nM.
Molecule N#Cc1cccc(OC2CCN(c3nc4cnccc4nc3NC3CC3)CC2)c1 has an IC50 of 15400 nM.
Cc1cc(S(=O)(=O)N2CCN(c3nc4cc(C#N)ccc4nc3NC3CC3)CC2)c(C)cc1Cl gave an IC50 of 450 nM.
Fc1cc(F)c(OC2CCN(c3nc4cnccc4nc3NC3CC3)CC2)c(F)c1 was tested, and the IC50 was 170 nM.
N#Cc1cccc(S(=O)(=O)N2CCN(c3nc4cc(C#N)ccc4nc3NC3CC3)CC2)c1 gave an IC50 of 2540 nM.
Work on N#Cc1ccc2nc(NC3CC3)c(N3CCN(S(=O)(=O)c4ccccc4F)CC3)nc2c1 yielded an IC50 of 4590 nM.
Molecule N#Cc1ccc2nc(N3CCC(C(F)c4ccc(F)cc4F)CC3)c(NC3CC3)nc2c1 (stereo unspecified) has an IC50 of 29 nM.
O=C(c1ccccc1Cl)C1CCN(c2nc3cnccc3nc2NC2CC2)CC1 gave an IC50 of 67 nM.
In the case of N#Cc1ccc2nc(Nc3cccnc3)c(N3CCC(Cc4ccc(F)cc4F)CC3)nc2c1, the IC50 is reported as 390 nM.
N#Cc1ccc(OC2CCN(c3nc4cnccc4nc3NC3CC3)CC2)cc1 gave an IC50 of 1940 nM.
Molecule O=C(c1cccs1)C1CCN(c2nc3cnccc3nc2NC2CC2)CC1 has an IC50 of 6750 nM.
For O=C(c1c(F)cccc1Cl)C1CCN(c2nc3cnccc3nc2NC2CC2)CC1, the IC50 was 4900 nM.
Cc1ccc(C)c(CN2CCN(c3nc4cnccc4nc3NC3CC3)CC2)c1 was tested, and the IC50 was 380 nM.
Work on Cc1cc(C(=O)N2CCN(c3nc4ccccc4nc3NC3CC3)CC2)ccc1Cl yielded an IC50 of 720 nM.
In the case of N#Cc1ccc2nc(NC3CC3)c(N3CCN(S(=O)(=O)c4ccccc4Br)CC3)nc2c1, the IC50 is reported as 1850 nM.
For Fc1ccc(CN2CCN(c3nc4cnncc4nc3NC3CC3)CC2)c(F)c1, the IC50 was 260 nM.
In the case of N#Cc1ccc2nc(NCCF)c(N3CCN(C(=O)c4ccc(Cl)cc4)CC3)nc2c1, the IC50 is reported as 960 nM.
Molecule COc1ccccc1C(=O)C1CCN(c2nc3cnccc3nc2NC2CC2)CC1 has an IC50 of 1920 nM.
In the case of N#Cc1ccc2nc(NC3CC3)c(N3CCC(Cn4cc(Cl)ccc4=O)CC3)nc2c1, the IC50 is reported as 930 nM.
CC(=O)c1ccc(OC2CCN(c3nc4cnccc4nc3NC3CC3)CC2)cc1 was tested, and the IC50 was 1740 nM.
With N#Cc1ccc2nc(Nc3ccon3)c(N3CCN(C(=O)c4ccc(Cl)cc4)CC3)nc2c1 the IC50 was 15400 nM.
With CC(C)Nc1nc2cnncc2nc1N1CCC([C@@H](F)c2ccc(F)cc2F)CC1 the IC50 was 14 nM.
For Cc1cc2nc(NC3CC3)c(N3CCC([C@@H](F)c4ccc(F)cc4F)CC3)nc2cn1, the IC50 was 6 nM.
N#Cc1ccc2nc(NC3CC3)c(N3CCN(S(=O)(=O)c4ccc(C(F)(F)F)cc4Cl)CC3)nc2c1 gave an IC50 of 1300 nM.
For N#Cc1ccc2nc(NC3CC3)c(N3CCN(S(=O)(=O)c4ccc(OC(F)(F)F)cc4)CC3)nc2c1, the IC50 was 4290 nM.
In the case of N#Cc1ccc2nc(NC3CC3)c(N3CCN(S(=O)(=O)c4ccccc4C#N)CC3)nc2c1, the IC50 is reported as 4340 nM.
With N#Cc1ccc2nc(NCCC(F)(F)F)c(N3CCC(Oc4ccc(F)cc4F)CC3)nc2c1 the IC50 was 160 nM.
With COc1ccc(OC2CCN(c3nc4cnncc4nc3NC3CC3)CC2)c(F)c1 the IC50 was 20 nM.
In the case of O=C(c1cccnc1Br)C1CCN(c2nc3cnccc3nc2NC2CC2)CC1, the IC50 is reported as 2740 nM.
For N#Cc1ccc(Cl)c(C(=O)C2CCN(c3nc4cnc(Cl)cc4nc3NC3CC3)CC2)c1, the IC50 was 89 nM.
With O=C(c1c(F)cccc1F)C1CCN(c2nc3cnccc3nc2NC2CC2)CC1 the IC50 was 2180 nM.
Fc1cc(F)c(CN2CCN(c3nc4cnccc4nc3NC3CC3)CC2)cc1F was tested, and the IC50 was 50 nM.
Work on Fc1ccc(CC2CCN(c3nc4ccncc4nc3NCC(F)F)CC2)c(F)c1 yielded an IC50 of 78 nM.
For N#Cc1ccc2nc(NC3CCC3)c(N3CCN(C(=O)c4ccc(Cl)cc4)CC3)nc2c1, the IC50 was 300 nM.
Molecule N#Cc1cc2nc(NC3CC3)c(N3CCC([C@@H](F)c4ccc(F)cc4F)CC3)nc2cn1 has an IC50 of 17 nM.
Molecule Fc1ccc(F)c(C(F)C2CCN(c3nc4cnccc4nc3NC3CC3)CC2)c1 (stereo unspecified) has an IC50 of 20 nM.
Work on Fc1ccc(Cl)cc1CN1CCN(c2nc3cnccc3nc2NC2CC2)CC1 yielded an IC50 of 29 nM.
Molecule O=C(c1cc2nc(NC3CC3)c(N3CCC([C@@H](F)c4ccc(F)cc4F)CC3)nc2cn1)N1CCC1F (stereo partly specified) has an IC50 of 26 nM.
For Clc1ccc(Cl)c(CN2CCN(c3nc4cccc(Br)c4nc3NC3CC3)CC2)c1, the IC50 was 1640 nM.
Molecule CC[C@H](C)Nc1nc2cnncc2nc1N1CCC(Oc2ccc(OC)cc2F)CC1 has an IC50 of 21 nM.
With N#Cc1ccc2nc(NC3CC3)c(N3CCN(S(=O)(=O)c4cc(C(F)(F)F)ccc4Cl)CC3)nc2c1 the IC50 was 1360 nM.

These molecules were tested on Rattus norvegicus (assay: Reversal of haloperidol-induced catalepsy in Sprague-Dawley rat at 10 mg/kg, sc after 120 mins relative to control). Details: 2 h.
Type: functional
N#Cc1ccc2nc(NC3CC3)c(N3CCC(Cc4ccc(F)cc4F)CC3)nc2c1 showed an inhibition in vivo at 10 mg/kg of 25.1%.

The molecules below were run on Rattus norvegicus (assay: Reversal of haloperidol-induced catalepsy in Sprague-Dawley rat at 10 mg/kg, sc after 30 mins relative to control). Details: 0.5 h.
Type: functional
In the case of N#Cc1ccc2nc(NC3CC3)c(N3CCC(Cc4ccc(F)cc4F)CC3)nc2c1, the inhibition in vivo at 10 mg/kg is reported as 36.9%.
